The results in this text go back to patent publication US9771560B2, “High-throughput image-based chemical screening in zebrafish blastomere cell culture” (CHILDREN'S MEDICAL CENTER CORPORATION, priority 2012, dated 2017).

For one experiment, the system named is cultured satellite cells. Put plainly: Flow cytometry of CXCR4 and β-1 Integrin on cultured satellite cells. The class given is cell-based, mouse. The conditions noted are these: after 5 days in culture, FACS. The protocol: FIG. 5C, GFP^+ satellite cells were harvested from β-actin GFP mice and were transplanted into TA muscle of recipient mdx mice, injured 1 day previously by injection of cardiotoxin, either right after isolation or after five days in culture with DMSO or forskolin treatment. […] Scale bars represent 200 μm.
Flow cytometry analysis was performed using a BD LSR II, provided through the Harvard Stem Cell Institute Flow Cytometry Core Facility. Flow cytometry data were collected using DIVA (Becton Dickinson (BD), Franklin Lakes, N.J.) software and analyzed offline using Flowjo software (Tree Star, Inc., Macintosh version 8.1.1, Ashland, Oreg.). Antibodies used for flow cytometry included: APC/Cy7 anti-mouse Ter119, clone Ter119 (1:200, Biolegend 116223), APC/Cy7 anti-mouse CD45, clone 30-F11 (1:200, Biolegend 103116), APC/Cy7 anti-mouse CD11b, clone M1/70 (1:200, Biolegend 101226), APC Anti-mouse Ly-6A/E (Sca-1), clone D7 (1:200, Biolegend 108112), Biotin anti-mouse CD184 (CXCR4, Fusin) (1:100, BD Biosciences 551968), Streptavidin PE-Cy7 (1:100, eBioscience 25-4317-82), PE anti-mouse/rat CD29 Antibody (1:100, Biolegend 102208). Live cells were identified by positive staining with calcein blue (1:1000) (Invitrogen, Carlsbad, Calif.) and negative staining for propidium iodide (PI, 1 μg/mL). […]
On the technique in general: In flow cytometry, cells or beads pass a laser one at a time.

For experiment [1], the system named is cAMP levels in mouse satellite cell cultures. Put plainly: cAMP-Glo assay in cultured satellite cells. The class given is cell-based. The protocol: cAMP assay was performed using the cAMP-Glo™ Assay kit (Promega) according to the manufacturer's protocol.
To test forskolin's effect on satellite cell survival and proliferation, single cells were plated at one cell per well in 96-well plates and treated with forskolin or DMSO. After six days in vitro culture, we quantified the number of wells containing any number of myogenic cells (a measure of cell survival) and the number of cells in those wells (a measure of cell proliferation) (FIG. 3D).

The test system of experiment [2] is satellite cells from C57BL/6J mice. Put plainly: In vitro expansion of mouse satellite cells (cell count). The experiment is classed as cell-based. Particulars: 5 days in culture. The protocol:
(§1) SMP isolation was performed as previously described (Cerletti et al., 2008; Sherwood et al., 2004). Briefly, MFA cells were prepared from intact skeletal muscles (EDL, gastrocnemius, quadriceps, soleus, TA, triceps brachii, abdominal) by digesting the muscles with collagenase type II and then dispase enzymes. MFA cells were stained for isolation of CD45^−Sca-1^−Mac-1^−CXCR4^+ b1-integrin^+ cell population by FACS. For in vitro expansion experiments, SMPs were seeded on collagen/laminin-coated plates in F10 (Gibco) containing 20% horse serum (Atlanta Biologics), 1% penicillin-streptomycin (Invitrogen) and 1% glutamax (Invitrogen). […] Cells were counted or used for transplantation after 5 days in culture. For Myogenic colony formation assay cells were fixed and counted after 6 days in culture. […]
(§2) Cultured SMPs were fixed in 4% paraformaldehyde (PFA) and stained with 10 μg/ml Hoechst (Invitrogen). […] The images were analyzed and numbers of cells were counted by the built-in software. […] The images were analyzed and percentage of nuclei in myotubes was calculated using a modified ImageJ macro developed in-house. […]
(§3) We hypothesized that the chemical hits enhancing skeletal muscle development in zebrafish blastomeres may likewise promote muscle precursor cell formation and/or expansion in other species. […] Cell number in the resulting colonies was determined after 5 days in culture.

Experiment [3] deals with satellite cells from mdx mice. Briefly: In vitro expansion of mdx satellite cells (cell count). The class given is cell-based, mouse. Particulars: 5 days in culture. The protocol: as §1, §2, §3

“And” between values parts separate entries of the source, which are not always exact repeats. Equal values may be shown once.

Regarding `C=C[C@@]1(C)CC(=O)[C@]2(O)[C@@]3(C)[C@@H](O)CCC(C)(C)[C@@H]3[C@H](O)[C@H](OC(C)=O)[C@@]2(C)O1` [forskolin], the “frequency of cells co-expressing CXCR4 and β-1 Integrin” value in the experiment with cultured satellite cells is 78.9%+/−1.52% and ~80%. Moreover, the results for the “concentration of cAMP, fold increase compared to DMSO treated cells” value in experiment [1] (25 μM forskolin), in experiment [1] (50 μM forskolin) and in experiment [1] (100 μM forskolin) were ~4.5 fold, ~5.2 fold and ~5.7 fold, respectively. Besides, the “total number of cells, fold change compared to DMSO treated cells” value is recorded as ~2 folds in experiment [2] (absence of bFGF) and ~2.3 folds in experiment [2] (presence of bFGF). Moreover, the “fold change of number of satellite cells compared to DMSO” value in experiment [3] was ~3.6 folds.
